Molecular target: T1, PIKfyve (Homo sapiens, UniProt Q9Y2I7)
T1 construct: T7 phage fusion (kinase-tagged phage) or DNA tag for qPCR; made in house; host or cells: E. coli BL21-derived host (T7 phage) for most kinases, HEK-293 for the rest
Test: Kinase binding assay (kinase-tagged T7 phage, affinity beads, qPCR readout), Kd determination
Conditions: 11-point 3-fold dilution series
Procedure: Kinase assays. For most assays, kinase-tagged T7 phage strains were prepared in an E. coli host derived from the BL21 strain. E. coli were grown to log-phase and infected with T7 phage and incubated with shaking at 32° C. until lysis. The lysates were centrifuged and filtered to remove cell debris. The remaining kinases were produced in HEK-293 cells and subsequently tagged with DNA for qPCR detection. Streptavidin-coated magnetic beads were treated with biotinylated small molecule ligands for 30 minutes at room temperature to generate affinity resins for kinase assays. The liganded beads were blocked with excess biotin and washed with blocking buffer (SeaBlock (Pierce), 1% BSA, 0.05% Tween 20, 1 mM DTT) to remove unbound ligand and to reduce non-specific binding. Binding reactions were assembled by combining kinases, liganded affinity beads, and test compounds in 1× binding buffer (20% SeaBlock, 0.17×PBS, 0.05% Tween 20, 6 mM DTT). Test compounds were prepared as 111× stocks in 100% DMSO. Kds were determined using an 11-point 3-fold compound dilution series with three DMSO control points. All compounds for Kd measurements are distributed by acoustic transfer (non-contact dispensing) in 100% DMSO. The compounds were then diluted directly into the assays such that the final concentration of DMSO was 0.9%. All reactions performed in polypropylene 384-well plate. Each was a final volume of 0.02 ml. The assay plates were incubated at room temperature with shaking for 1 hour and the affinity beads were washed with wash buffer (1×PBS, 0.05% Tween 20). The beads were then re-suspended in elution buffer (1×PBS, 0.05% Tween 20, 0.5 μM non-biotinylated affinity ligand) and incubated at room temperature with shaking for 30 minutes. The kinase concentration in the eluates was measured by qPCR.
An 11-point 3-fold serial dilution of each test compound was prepared in 100% DMSO at 100× final test concentration and subsequently diluted to 1× in the assay (final DMSO concentration=1%). Most Kds were determined using a compound top concentration=30,000 nM. If the initial Kd determined was <0.5 nM (the lowest concentration tested), the measurement was repeated with a serial dilution starting at a lower top concentration.

T1 sequence (Q9Y2I7 whole entry, the tested form may be a part): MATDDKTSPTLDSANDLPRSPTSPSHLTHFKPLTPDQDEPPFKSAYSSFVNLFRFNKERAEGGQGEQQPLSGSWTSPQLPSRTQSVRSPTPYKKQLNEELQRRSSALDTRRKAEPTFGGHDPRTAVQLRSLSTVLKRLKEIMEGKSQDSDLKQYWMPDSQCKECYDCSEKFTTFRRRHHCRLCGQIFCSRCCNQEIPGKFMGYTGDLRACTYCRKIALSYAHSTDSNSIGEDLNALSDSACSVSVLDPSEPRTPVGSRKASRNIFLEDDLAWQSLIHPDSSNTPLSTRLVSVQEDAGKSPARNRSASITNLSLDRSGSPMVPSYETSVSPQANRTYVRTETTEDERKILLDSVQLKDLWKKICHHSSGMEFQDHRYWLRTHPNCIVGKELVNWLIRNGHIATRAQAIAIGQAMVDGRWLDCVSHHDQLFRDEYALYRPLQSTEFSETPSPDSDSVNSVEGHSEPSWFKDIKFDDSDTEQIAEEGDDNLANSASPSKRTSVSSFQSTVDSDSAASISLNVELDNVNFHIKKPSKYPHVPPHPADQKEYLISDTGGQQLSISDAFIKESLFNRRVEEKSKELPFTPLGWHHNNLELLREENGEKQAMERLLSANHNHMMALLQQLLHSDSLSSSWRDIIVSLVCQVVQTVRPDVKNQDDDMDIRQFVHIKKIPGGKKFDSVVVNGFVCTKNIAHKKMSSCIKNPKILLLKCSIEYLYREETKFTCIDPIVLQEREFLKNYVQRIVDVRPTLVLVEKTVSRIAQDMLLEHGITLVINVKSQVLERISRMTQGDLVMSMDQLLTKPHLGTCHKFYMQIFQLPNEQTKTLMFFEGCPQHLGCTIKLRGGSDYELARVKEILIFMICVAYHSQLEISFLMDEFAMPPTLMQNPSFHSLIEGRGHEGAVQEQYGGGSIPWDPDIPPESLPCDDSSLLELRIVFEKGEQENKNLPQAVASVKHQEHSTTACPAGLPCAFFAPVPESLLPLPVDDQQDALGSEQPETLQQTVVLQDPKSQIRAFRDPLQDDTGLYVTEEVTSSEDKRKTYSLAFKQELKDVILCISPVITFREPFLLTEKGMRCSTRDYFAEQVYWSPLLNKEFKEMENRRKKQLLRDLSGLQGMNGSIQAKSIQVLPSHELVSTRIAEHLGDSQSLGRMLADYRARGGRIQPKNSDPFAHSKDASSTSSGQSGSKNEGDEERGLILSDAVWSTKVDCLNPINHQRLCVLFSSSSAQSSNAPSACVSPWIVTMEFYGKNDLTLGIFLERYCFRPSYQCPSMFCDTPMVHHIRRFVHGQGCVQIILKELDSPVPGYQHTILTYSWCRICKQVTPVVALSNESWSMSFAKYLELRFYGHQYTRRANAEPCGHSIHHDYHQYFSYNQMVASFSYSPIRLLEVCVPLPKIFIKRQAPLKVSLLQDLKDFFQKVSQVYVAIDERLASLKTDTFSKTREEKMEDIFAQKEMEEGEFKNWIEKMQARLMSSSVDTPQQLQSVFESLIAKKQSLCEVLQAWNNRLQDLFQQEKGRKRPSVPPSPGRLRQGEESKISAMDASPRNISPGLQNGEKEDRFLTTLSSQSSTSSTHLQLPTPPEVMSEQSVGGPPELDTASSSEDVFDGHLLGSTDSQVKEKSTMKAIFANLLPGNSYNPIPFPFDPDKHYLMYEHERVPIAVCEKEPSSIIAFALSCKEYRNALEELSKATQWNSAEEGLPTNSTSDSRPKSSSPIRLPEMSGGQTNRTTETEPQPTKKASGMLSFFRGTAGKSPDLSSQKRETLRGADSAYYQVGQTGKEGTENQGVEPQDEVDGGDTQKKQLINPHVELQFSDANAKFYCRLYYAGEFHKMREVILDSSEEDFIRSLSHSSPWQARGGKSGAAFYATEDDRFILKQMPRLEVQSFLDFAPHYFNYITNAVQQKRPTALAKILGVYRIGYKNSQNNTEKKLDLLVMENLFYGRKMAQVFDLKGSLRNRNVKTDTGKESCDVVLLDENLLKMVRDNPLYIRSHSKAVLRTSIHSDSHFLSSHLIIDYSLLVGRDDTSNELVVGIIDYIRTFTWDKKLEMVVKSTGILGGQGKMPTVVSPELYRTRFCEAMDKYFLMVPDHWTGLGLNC

Kd | Compound
10 to 60 nM | Cc1cccc(/C=N/Nc2nc3c(c(N4CCOCC4)n2)CN(Cc2ccccn2)C3)c1 [Example 11, 4-morpholino-N-[(E)-m-tolylmethyleneamino]-6-(2-pyridylmethyl)-5,7-dihydropyrrolo[3,4-d]pyrimidin-2-amine]
1 to 5 nM | Cc1cccc(/C=N/Nc2nc3c(c(N4CCOCC4)n2)CN(S(=O)(=O)N(C)C)C3)c1 [Example 21, N,N-dimethyl-4-morpholino-2-[(2E)-2-(m-tolylmethylene)hydrazino]-5,7-dihydropyrrolo[3,4-d]pyrimidine-6-sulfonamide]
